Data as given in patent US20250250227A1, “AMINO LIPID COMPOUND, PREPARATION METHOD THEREFOR, COMPOSITION THEREOF AND USE THEREOF” (SHENZHEN SHENXIN BIOTECHNOLOGY CO., LTD., priority 2022, published 2025).

How the values were obtained:
[1] = Preparation and characterisation of mRNA-encapsulating lipid nanoparticle (encapsulation efficiency, particle size); format: physicochemical; conditions: LNP encapsulating Fluc mRNA; Lipid:DSPC:CHO-HP:M-DMG-2000 48:10:40.5:1.5
Procedure, shortened: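 Fluc mRNA in sodium acetate buffer mixed with ethanolic amino lipid:DSPC:CHO-HP:M-DMG-2000 (48:10:40.5:1.5 molar) by microfluidics, mRNA:lipid mass ratio 1:10, then dialysed 2 h against Tris-8% sucrose and 0.22 μm filtered. Final mRNA 0.2 g/L; particle size and encapsulation efficiency measured.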

Female BALB/c mice [2] = test: Performance evaluation of delivery to lymph nodes of Fluc mRNA lipid nanoparticle (IVIS); format: in vivo; conditions: Fluc mRNA LNP
Description: (§1) Animal preparation: Female BALB/c mice of 6-8 weeks old were selected and raised in an SPF grade breeding room. Animal testing was conducted in strict accordance with the guidelines of national health institutions and animal ethics requirements.
In vivo Delivery: prior to injection of the test LNP formulations, the LNP formulations were gently and repeatedly inverted to thoroughly mix the formulation samples. A corresponding amount of the formulation samples were aspirated with a 1 ml insulin syringe, and the LNP formulations were injected by tail vein injection (IV), with 3 mice per formulation. Each mouse was injected with 75 μL the luciferase mRNA (Fluc mRNA)-encapsulating lipid nanoparticle formulation prepared in Experimental Example 1.
6 hours after injection of LNP formulations, mice were injected with 200 μL D-Luciferin luciferase developing substrate (Catalog No. 122799; Manufacturer: Perkin Elmer). After the substrate was injected, the mice were anesthetized with isoflurane inhalation, and the injection time of luciferase developing substrate was recorded.
The intensity of fluorescence expression induced by the lipid nanoparticle encapsulating luciferase mRNA (Fluc mRNA) with a representative amino lipid compound is shown in Table 6, with SM-102 as a control.

Female BALB/c mice [3] = test: IFN-γ Elispot cellular immunity test, spleen lymphocytes of mice immunized with IN002.5.1 mRNA LNP; format: in vivo; conditions: 50 μL IM, spleen on 7th day after immunization, FIG. 2-4
Description: An IN002.5.1 mRNA-encapsulating lipid nanoparticle formulation was prepared according to the method as described in Experimental Example 1, with replacing the luciferase mRNA (Fluc mRNA) with IN002.5.1 mRNA, with a concentration of IN002.5.1 mRNA of 0.2 g/L, a mass ratio of IN002.5.1 mRNA to Lipid of 1:10, a particle size of 80-130 nm, and an encapsulation efficiency of 90% or higher.
The sequence of IN002.5.1 mRNA is one obtained by replacing all uracil (u) in SEQ ID NO. 1 with N1-methylpseudouridine. Of note is that the t (thymine) in the RNA sequence, SEQ ID NO. 1, in the Sequence Listing is actually u (uracil), according to the WIPO Standard ST. 26 for nucleotide or amino acid sequence listing.
as §1
Immunization of mice: Prior to injection of the test LNP formulations, the LNP formulations were gently and repeatedly inverted to thoroughly mix the formulation samples. A corresponding amount of the formulation samples were aspirated with a 1 ml insulin syringe, and the LNP formulations were injected by intramuscular injection (IM) […], with 8 mice per formulation. Each mouse was injected with 50 μL of the IN002.5.1 mRNA encapsulating lipid nanoparticle formulation.
Spleen acquisition: On the 7th day after immunization, 3 to 4 mice from each LNP immunization group were selected and euthanized, and their spleens were acquired in a super clean bench.
Isolation of lymphocytes: The spleens of mice were taken out in a super clean bench. 7 mL of mouse lymphocyte separation solution was added to a 6-well cell culture plate. Mouse spleen cells were ground with a syringe piston, and the suspension of the spleen cells was filtered through a cell screen and immediately transferred to a 15 mL centrifuge tube. […] RPMI 1640 medium was slowly added with keeping the liquid interface distinct. After centrifugation at 800 g with a horizontal rotor at room temperature for 30 minutes, a clear stratification can be visible. The lymphocyte layer was aspirated, then added with 10 mL RPMI 1640 medium, and inverted for washing. The cells were collected by centrifugation at 250 g for 10 min at room temperature, and the red blood cells were lysed. After completing lysis of red blood cells, the supernatant was poured, and the cells were resuspended in culture medium and counted.
Addition of stimulant and culture of lymphocyte: RPMI-1640 medium containing 10% fetal bovine serum was used to activate the pre-coated plate. After standing at room temperature for at least 30 min, the medium was removed, and a cell suspension at adjusted concentration was added ([…]). The medium used to resuspend the cells was used as a background negative control. 10 μL positive stimulant working solution (PMA+Ionomycin (dissolved in DPBS) was added to a positive control well; […] medium used to resuspend the cells was added to a negative control well; 10 µL/well of a peptide library diluted with RPMI 1640 was added to experimental wells. After all samples and the stimulant were added, the plate was covered, incubated in an incubator with 5% CO2 at 37° C. for 16-24 h.
Elispot detection after culture: The cells and the culture medium in the wells were dumped, and the wells were lysed with 200 μL/well of ice-cold deionized water at 4° C. for 10 min. The liquid in the wells were shaken out, and the wells were washed five times with PBS buffer. The wells were incubated with 100 μL/well of 1 μg/ml detection antibody for 2 h at room temperature; and after washing the plate 5 times with PBS, the wells were incubated with 100 μL/well of 1000-fold diluted enzyme labeled avidin (Streptavidin-HRP) for 1 h at room temperature. […]

Female BALB/c mice [4] = test: Performance evaluation of in vivo delivery of Fluc mRNA lipid nanoparticle (IVIS, body and organs); conditions: Fluc mRNA LNP
Procedure, shortened: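 Female BALB/c mice, 6-8 weeks, received 75 μL Fluc mRNA-LNP by tail-vein injection, 3 mice per formulation. At 6 h, 200 μL D-luciferin was injected, mice were anesthetized with isoflurane, and IVIS bioluminescence was imaged in body and organs.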

In the case of `CCCCCCC(CCCCCC)OC(=O)CCCCCCCCC(CCCCCCCCC(=O)OC(CCCCCC)CCCCCC)OC(=O)N(CCCN(C)C)CC(=O)OCC` [Compound 268], the Encapsulation efficiency [1] is reported as 92.22%, the “Expression intensity (lymph nodes)” value (Female BALB/c mice [2]; 75 μL IV, 6 hours after injection, IVIS, lymph nodes) is reported as 1.78E+06 and the “Delivery effect on lymph nodes compared to SM102” value (Female BALB/c mice [2]; IV, statement on Table 6) is reported as “better delivery effect on lymph nodes”. For the same compound, the “Cellular immunity effect (IFN-γ Elispot) compared to ALC0315” value (Female BALB/c mice [3]) was “better cellular immunity effect”, the “Liver (fluorescence expression intensity)” value (Female BALB/c mice [4]; 75 μL IV, 6 hours after injection, IVIS, liver) was 2.11E+07 and the “Spleen (fluorescence expression intensity)” value (Female BALB/c mice [4]; 75 μL IV, 6 hours after injection, IVIS, spleen) was 8.01E+06. For the same compound, the “Total flux (fluorescence expression intensity)” value (Female BALB/c mice [4]; 75 μL tail vein injection (IV), 6 hours after injection, IVIS) was 1.23E+08, the “(Spleen/Total Flux) * 100%” value (Female BALB/c mice [4]; IV, 6 hours after injection) was 6.51% and the “Multiple of spleen delivery/total delivery to amino lipid compound 118” value (Female BALB/c mice [4]; IV, relative to amino lipid compound 118) was 19.15.
